Tests used:
CD4 [1] = target: T1, CD4 (Homo sapiens, UniProt P01730); experiment: Inhibition of binding of αCD4-FITC (anti-Leu3a) to PBL, flow cytometry
T1 construct: PBL were prepared by density gradient centrifugation; endogenous in cells; host or cells: human peripheral blood lymphocytes (PBL)
Procedure: (§1) For these binding assays, PBL were prepared by density gradient centrifugation, and the effect of the azo dyes on the binding of anti-CD4-FITC (Becton Dickinson, Mountain View, Calif.) was measured (Weaver et al., supra). Cells were treated with an azo dye for at least 10 minutes at room temperature, or for more than 30 minutes at 4° C., and were then contacted with FITC-labeled antibody. Binding was measured by quantitating cell bound fluorescence using flow cytometry.

[2] = target: T2, HIV rgp120 binding to CD4 (Homo sapiens, UniProt P01730); experiment: Inhibition of HIV rgp120 binding to CD4 on PBL, detected with anti-rgp120-FITC; details: PBS, % logarithmic mean channel number of rgp120 binding detected by αrgp120-FITC
T2 construct: PBL were prepared by density gradient centrifugation; endogenous in cells; host or cells: human peripheral blood lymphocytes (PBL)
Procedure: as §1, with “Since anti-Leu3a (αCD4) and recombinant HIV coat protein (rgp120) bind to the same site on the CD4 molecule, interference in binding of CD4 confirms interference in HIV binding to αCD4 (Weaver et al., AIDS Res. Human Retrovir., 6, 1125-1130 (1990)). For” for “For”
The ability of Direct Orange 26, Direct Red 23, Direct Red 24, and Direct Red 26 to inhibit the binding of HIV rgp120 to CD4 was determined using monoclonal anti-rgp120-FITC (Genentech, Inc., San Francisco, Calif.) to detect recombinant HIV coat protein in the binding assay described in Example 1.

CD4 [3] = target: T1, CD4; experiment: Dose-response of inhibition of αCD4 binding in presence (RPMI 1640 with 5% serum) and absence (PBS) of serum; details: RPMI 1640 with 5% serum versus PBS; FIG. 1
Procedure: as §1

HIV isolate LAV-1BR = experiment: HIV replication in phytohemagglutinin-stimulated human PBL, intracellular p24 ELISA; assay type: cell-based; details: six days culture; for pg/ml HIV p24: virus only 101,000
Text: The ability of the azo dyes to negatively affect HIV replication was verified after six days of culturing the HIV isolate LAV-1BR in phytohemagglutinin-stimulated human PBL. For this experiment, the amount of intracellular HIV p24 protein in cell lysates was quantitated with use of an HIV p24 enzyme linked immunosorbent assay kit (Cellular Products, Buffalo, N.Y.) as described in Anand et al., AIDS Res. Human Retrovir., 6, 679-689 (1990). This measure of p24 protein was considered an indication of HIV replication. Aurintricarboxylic acid (ATA; Sigma Chemical Co., St. Louis, Mo.) was included in this experiment as a positive control, and the solvent DMSO was utilized for further comparative purposes.

[4] = target: T3, CD3 (αCD3 binding to PBL) (Homo sapiens, UniProt P07766); experiment: Specificity: binding of αCD3-FITC to PBL; details: PBS, % logarithmic mean channel number of αCD3-FITC binding, read-out: % Control Binding (αCD3)
T3 construct: endogenous in cells; host or cells: human peripheral blood lymphocytes (PBL)

[5] = Viability of PBL after 72 hour culture with αTCR stimulation, propidium iodide exclusion; assay type: cell-based, human; details: pbl
Procedure: (§2) Cells were then washed once in PBS, and resuspended in PBS with 3 μg/ml propidium iodide. After 10 minutes incubation, the cells were analyzed by flow cytometry. Live cells were defined as those excluding propidium iodide.

PBL = experiment: as above; assay type: cell-based, human
Procedure: as §2

[6] = target: T4, CD8 (αCD8 binding to PBL) (Homo sapiens, UniProt P01732); experiment: Specificity: binding of αCD8-FITC to PBL; details: PBS, % logarithmic mean channel number of αCD8-FITC binding, read-out: % Control Binding (αCD8)
T4 construct: endogenous in cells; host or cells: human peripheral blood lymphocytes (PBL)
Procedure: as §1, with “Since anti-Leu3a (αCD4) and recombinant HIV coat protein (rgp120) bind to the same site on the CD4 molecule, interference in binding of CD4 confirms interference in HIV binding to αCD4 (Weaver et al., AIDS Res. Human Retrovir., 6, 1125-1130 (1990)). For” for “For”
The specificity of the dyes was confirmed by testing their ability to interfere with the binding of two other monoclonal antibodies, αCD3 and αCD8, to PBL using the binding assay described in Example 1.

[7] = read-out: % Control Binding (HIV rgp120)
[8] = 20 μM, PBS, % logarithmic mean channel number of αCD4-FITC binding

T4 sequence (P01732 22-235): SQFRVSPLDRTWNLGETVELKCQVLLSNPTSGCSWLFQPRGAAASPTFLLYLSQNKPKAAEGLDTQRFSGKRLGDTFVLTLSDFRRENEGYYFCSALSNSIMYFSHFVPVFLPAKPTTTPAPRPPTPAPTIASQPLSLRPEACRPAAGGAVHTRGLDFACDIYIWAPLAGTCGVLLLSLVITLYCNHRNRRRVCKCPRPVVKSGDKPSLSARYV
T4 sequence (P10966 22-210 partner): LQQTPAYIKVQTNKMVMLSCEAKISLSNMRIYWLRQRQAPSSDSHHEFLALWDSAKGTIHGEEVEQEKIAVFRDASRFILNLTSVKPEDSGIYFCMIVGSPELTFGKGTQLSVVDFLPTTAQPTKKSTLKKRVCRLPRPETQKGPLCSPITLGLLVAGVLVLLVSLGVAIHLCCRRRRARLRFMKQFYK
T3 sequence (P07766 23-207): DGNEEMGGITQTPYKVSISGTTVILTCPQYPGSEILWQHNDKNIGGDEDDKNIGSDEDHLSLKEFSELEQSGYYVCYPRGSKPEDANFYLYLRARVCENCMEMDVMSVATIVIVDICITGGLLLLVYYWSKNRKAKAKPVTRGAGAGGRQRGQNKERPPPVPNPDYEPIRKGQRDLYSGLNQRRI
T3 sequence (P04234 22-171 partner): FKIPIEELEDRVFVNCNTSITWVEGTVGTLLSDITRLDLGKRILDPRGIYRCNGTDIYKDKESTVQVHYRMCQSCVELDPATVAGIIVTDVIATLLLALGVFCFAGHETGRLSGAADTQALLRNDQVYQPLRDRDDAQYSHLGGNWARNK
T3 sequence (P09693 23-182 partner): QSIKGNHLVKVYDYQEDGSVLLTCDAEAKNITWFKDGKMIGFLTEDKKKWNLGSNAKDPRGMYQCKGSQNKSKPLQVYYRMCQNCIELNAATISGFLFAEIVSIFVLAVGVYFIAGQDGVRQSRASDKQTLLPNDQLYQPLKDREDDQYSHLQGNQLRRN
T3 sequence (P20963 22-164 partner): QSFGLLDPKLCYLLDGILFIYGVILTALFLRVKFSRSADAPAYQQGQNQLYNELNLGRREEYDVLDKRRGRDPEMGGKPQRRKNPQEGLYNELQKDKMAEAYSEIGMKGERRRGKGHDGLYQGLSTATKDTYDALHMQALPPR

In the case of Cc1cc(-c2ccc(/N=N/c3ccc4c(S(=O)(=O)O)cc(S(=O)(=O)O)c(N)c4c3O)c(C)c2)ccc1/N=N/c1ccc2c(S(=O)(=O)O)cc(S(=O)(=O)O)c(N)c2c1O [Evans Blue, Evans blue, reference compound], the “% Control Binding (αCD4)” value (CD4 [1]; 1 μM, PBS, % logarithmic mean channel number of αCD4-FITC binding) was 1%, the remaining activity at 1 µM (CD4 [1]; 1 μM, PBS, % logarithmic mean channel number of αCD4-FITC binding, read-out: % Control Binding (αCD4)) was 1% and the remaining activity at 1 µM [2, 7] was 8%.

With COc1cc(N=Nc2cc(S(=O)(=O)[O-])cc3cc(S(=O)(=O)[O-])cc(O)c23)c(C)cc1NC(=O)Nc1cc(C)c(N=Nc2cc(S(=O)(=O)[O-])cc3cc(S(=O)(=O)[O-])cc(O)c23)cc1OC.[Na+].[Na+].[Na+].[Na+] [Direct Red 79] the “Fold more dye needed to inhibit αCD4 binding in the presence of serum” value (CD4 [3]) was “about 100 ×”.

In the case of O=C(O)C1=CC(=C(c2ccc(O)c(C(=O)O)c2)c2ccc(O)c(C(=O)O)c2)C=CC1=O [ATA, Aurintricarboxylic acid, reference compound], the “pg/ml HIV p24” value (HIV isolate LAV-1BR; 50 μg/ml) was 1 pg/mL.

With Cc1ccccc1N=Nc1ccc(N=Nc2c(O)c(S(=O)(=O)[O-])cc3cc(S(=O)(=O)[O-])ccc23)c(C)c1.[Na+].[Na+] [Acid Red 115] the “Fold more dye needed to inhibit αCD4 binding in the presence of serum” value (CD4 [3]) was “about 100 ×”.

In the case of O=C(Nc1ccc2c(O)c(N=Nc3ccccc3)c(S(=O)(=O)O)cc2c1)Nc1ccc2c(O)c(N=Nc3ccccc3)c(S(=O)(=O)O)cc2c1 [Direct Orange 26], the remaining activity at 10 µM [4] was 103%, the “Inhibition of the binding of αCD4 to CD4 (in words)” value (shortened to “Inhibition of the binding of αCD4”) (CD4 [1]; 10 μM) was “completely inhibited” and the remaining activity at 10 µM (CD4 [1]; 10 μM, PBS, % logarithmic mean channel number of αCD4-FITC binding, read-out: % Control Binding (αCD4)) was 0%. The “Fold more dye needed to inhibit αCD4 binding in the presence of serum” value (CD4 [3]) was “about 5 ×”, the viability at 72 h, 400 µM ([5]; 400 μM, untreated 78.2, read-out: % Viable Cells) was 67.5% and the viability at 72 h, 800 µM ([5]; 800 μM, untreated 78.2, read-out: % Viable Cells) was 71.5%. For the same compound, the cytotoxicity at 72 h ([5]; 400-800 μM, read-out: Reduction of viability) was no more than 10%, the “Effect on PBL viability / lymphocyte proliferation (in words)” value (PBL) was “only a slight negative effect” and the “pg/ml HIV p24” value (HIV isolate LAV-1BR; 50 μg/ml) was 71 pg/mL. For the same compound, the “pg/ml HIV p24” value (HIV isolate LAV-1BR; 100 μg/ml) was 61 pg/mL, the “Effect on HIV replication (in words)” value (HIV isolate LAV-1BR; 50-100 μg/ml) was “strongly decrease HIV replication” and the remaining activity at 1 µM [2, 7] was 26%. It also gave a remaining activity at 2.5 µM ([2]; 2.5 μM, read-out: % Control Binding (HIV rgp120)) of 15% and a remaining activity at 10 µM [6] of 65%.

For COc1ccccc1N=Nc1c(S(=O)(=O)[O-])cc2cc(NC(=O)Nc3ccc4c(O)c(N=Nc5ccc(S(=O)(=O)[O-])cc5C)c(S(=O)(=O)[O-])cc4c3)ccc2c1O.[Na+].[Na+].[Na+] [Direct Red 24], the “Inhibition of the binding of αCD4” value (CD4 [1]; 20 μM) was “completely inhibited”, the “% Control Binding (αCD4)” value (CD4 [1]; [8]) was 0% and the “% Control Binding (HIV rgp120)” value ([2]; 5.0 μM) was 10-15%.

In the case of O=S(=O)([O-])c1ccc2c(N=Nc3ccccc3)ccc(N=Nc3ccc(Nc4ccccc4)c4c(S(=O)(=O)[O-])cccc34)c2c1.[Na+].[Na+] [Acid Blue 116], the “Fold more dye needed to inhibit αCD4 binding in the presence of serum” value (CD4 [3]) was “about 100 ×”.

In the case of Direct Red 26, the “Inhibition of the binding of αCD4” value (CD4 [1]; 20 μM) was “completely inhibited”, the “% Control Binding (αCD4)” value (CD4 [1]; [8]) was 0% and the “% Control Binding (HIV rgp120)” value ([2]; 5.0 μM) was 10-15%.

In the case of CC(=O)Nc1ccc(N=Nc2c(S(=O)(=O)O)cc3cc(NC(=O)Nc4ccc5c(O)c(N=Nc6ccccc6)c(S(=O)(=O)O)cc5c4)ccc3c2O)cc1 [Direct Red 23], the “Inhibition of the binding of αCD4” value (CD4 [1]; 20 μM) was “completely inhibited”, the remaining activity at 20 µM (CD4 [1]; 20 μM, PBS, % logarithmic mean channel number of αCD4-FITC binding, read-out: % Control Binding (αCD4)) was 0% and the remaining activity at 5 µM ([2]; 5.0 μM, read-out: % Control Binding (HIV rgp120)) was 10 to 15%.

— US5468469A, “Methods of using azo dyes and their derivatives” (The United States of America as represented by the …, priority 1994, dated 1995)
